From patent US9597347B2, “Compositions for treating obesity and insulin resistance disorders” (President and Fellows of Harvard College, priority 2003, dated 2017)

Assays:
[1] = system: Wild-type N2 C. elegans worms; assay: Nile Red staining of fat accumulation in wild-type N2 C. elegans; assay type: in vivo; details: 100 μM; for fat mobilization (fat content of the worms): L1 worms, vehicle DMSO
[2] = system: Wild-type N2 C. elegans worms; assay: as above; assay type: in vivo; details: 0, 1 or 10 mM, overnight
Experimental: Wild-type N2 C. elegans worms were grown on OP50 bacteria and exposed overnight to vehicle (0.1% ethanol) alone or with 10, 50 or 100 μM of resveratrol (in ethanol). Fat accumulation was visualized with Nile Red staining, as described further below and in Ashrafi K, et al. Nature 421:268-27 (2003).
Synchronized starved L1 worms were grown in the presence of Nile Red. Strains were grown on NGM plates at 25° C. for approximately 48 hours until the young adult stage was reached. 20-30 young adult worms were then washed 2× with M9 buffer and transferred to new NGM/Nile red experimental plates that contained either OP50 or HTT5 E. coli carrying the L4440 RNAi control vector. For experiments comparing the effect of nicotinamide and resveratrol on fat mobilization, OP50 plates were coated with vehicle alone or Nicotinamide (in PBS), or vehicle alone and Resveratrol (in Ethanol or DMSO).
Resveratrol (Indofine #024964) was dissolved in Ethanol or DMSO to a 10 mM stock solution. Resveratrol was added to 60 mm NGM agar dishes containing either OP50 or RNAi expressing bacteria (HT115) to a final concentration of 10 μm, 50 μm, and 100 μM. Nile Red was also added to plates to a final concentration of 0.05 μg/ml. Nicotinamide (Supelco #47865-U) was diluted in PBS including Nile Red and added to […] dishes containing OP50 to a final concentration of 1 mM, 10 mM, or 100 mM.
Nile Red: Nile Red Powder (Sigma #N-3013) was dissolved in acetone at 500 μg/ml, diluted in 1× Phosphate Buffered Saline (PBS) including appropriate drug and applied to surface of Nematode Growth Media (NGM) plates previously seeded with OP50 or RNAi bacteria, at a final concentration of 0.05 μg/ml. Fat content was monitored and recorded by fluorescence microscopy.
Nile Red Staining was visualized by using a Nikon TE2000S microscope equipped with a CY3 filter (emission 535-685 nm). Images were captured using a SPOT RT monochrome digital camera attached to the Nikon Microscope with SPOT RT software v3.5. All Nile red images were acquired using identical settings and exposure times and then changed to red palette.

HepG2 cells = assay: Oxidation of 14C-palmitate in HepG2 cells; assay type: cell-based; details: resveratrol 10 μM in 1% DMSO, AICAR 500 μM in H2O, metformin 1 mM in H2O; 4 hours; vehicle = 1
Experimental: (§1) Oxidation of 14C-palmitate to acid-soluble products (modified from H4IIEC3 cells [Witters, L. A. and B. E. Kemp, Insulin activation of acetyl-CoA carboxylase accompanied by inhibition of the 5′-AMP-activated protein kinase. J Biol Chem, 1992. 267(5): p. 2864-7] and HepG2 cells were maintained as described above. Cells (10^6 cells/T25) were seeded in a T25 flask one day prior to the experiment. On the day of the experiment cells were washed with assay buffer (114 mM NaCl, 4.7 mM KCL, 1.2 mM KH2PO4, 1.2 mM MgSO4, 11 mM glucose) before labeling with 14C-palmitate (0.4 μCi/ml) in presence of vehicle, or resveratrol (10 μM), or AICAR (500 μM) for 4 hours.
(§2) At the end of incubation, the cap of each T25 flask was replaced with a stopper and a 1′×1.5″ Whatman filter paper soaked with 250 μl 2N NaOH. Each flask was injected with 2 ml of 6N HCL, placed in a horizontal position for 10 minutes and left standing overnight. The next morning, 1 ml H2O and 61 μl NaOH were added to a glass scintillation vial and the filter papers from each T25 flask were transferred to their respective vial. 10 ml Aquasol was added to each vial and allowed to stand for 2 hours, after which the vials were vortexed to dissolve the […] and counted in the scintillation counter. The results were expressed as nmols/h/106 cells and shown as the fold effect. ^14CO2 production ranged from 0.3 to 1.8 nmols/h/106 cells. The experiment was repeated three times.

H4IIEC3 cells = assay: Oxidation of 14C-palmitate in H4IIEC3 cells; assay type: cell-based; details: resveratrol 10 μM in 1% DMSO, AICAR 500 μM in H2O, metformin 1 mM in H2O; 4 hours; vehicle = 1
Experimental: as §1, §2

C. elegans worms = assay: Nile Red fat staining in C. elegans fed RNAi bacteria; assay type: in vivo; details: RNA inactivation of TOC1.8 (AMPK homolog) or F41E7.3 (COT homolog)
Experimental: The role of Sir2.1 in fat metabolism was shown in C. elegans worms in which Sir2.1 was RNA inactivated. Young adult worms were grown to adulthood in the presence of bacteria that carry RNAi vector alone or vector encoding Sir2.1 RNAi (R11A8.4), as described below. These worms were grown in the presence or absence of resveratrol, and stained with Nile-Red as described below.
We have examined the C. elegans database and found two gene products that are highly related to mammalian AMPK, TOC1.8 and Par2.3; five genes encoding homologs of CPT-1 and one gene encoding a homolog of COT. C. elegans worms were incubated with bacteria carrying RNAi vector alone, or interfering RNA against TOC1.8 or F41E7.3, a C. elegans homologue of COT in the presence or absence of AICAR. Fat accumulation was visualized with Nile-Red, as described below. […] Thus, AICAR/AMPK signaling to fatty acid oxidation is conserved in worms and mammalian cells.
The effect of TOC1.8 and COT inactivation was then investigated in C. elegans incubated with resveratrol. C. elegans worms were incubated with bacteria carrying RNAi vector alone, or a vector encoding TOC1.8 or COT interfering RNA in the presence or absence of resveratrol. Fat accumulation was visualized with Nile-Red, as described below.
RNAi plates were seeded with HTT5 E. coli carrying either the L4440 RNAi vector control or the specific RNAi clones T01C8.1, AMPK; R11A8.4, sir-2.1; or F41E7.6 COT in the presence or absence of 100 μM resveratrol. Young adults were transferred to plates containing the appropriate vector, Nile Red stain and drug then maintained at 25° C. Nile Red staining was assessed 24 hours after resveratrol treatment by UV microscopy.
HT115 E. Coli carrying the RNAi vector, L4440, were used for maintenance feeding. Bacteria containing experimental RNAi clones were cultured in 10 ml Luria Broth media containing 50 μg/ml ampicillin for 18 hours. 350 μl of each culture was spotted to a 60 mm dish containing NGM agar, 6 mM IPTG and 25 μg/ml carbenicillin. After overnight incubation (at room temp), Nile Red was added on top of each dish to a final concentration of 0.05 μg/ml along with the experimental compounds indicated in the figure legends. Nile Red staining was assessed after 24 hrs by UV microscopy. For each batch of RNAi clones tested, L4440 (vector alone) was included. […] All phenotypes were confirmed by at least three additional rounds of testing.

[3] = system: phosphorylation of AMPK on threonine 172 and of ACC on serine 79; assay: Western analysis of AMPK and ACC phosphorylation in CHO-HIR cells; assay type: cell-based; details: resveratrol 12.5, 25 or 50 μM; AICAR 500 μM (positive control); 30 minutes; serum-free overnight
Experimental: CHO-HIR mammalian cells were washed in PBS and incubated overnight in serum-free DMEM before treatment with 500 μM AICAR (positive control) or 12.5 μM, 25 μM or 50 μM resveratrol. Cells were harvested after 30 minutes and lysates were immediately boiled in SDS and subjected to Western analysis with site-specific antibodies. Phosphorylation of AMPK at Thr172 indicates activation of the kinase. Active AMPK phosphorylates and inactivates ACC at serine 79.
CHO cells were also treated with 500 μM AICAR (positive control), DMSO, 100 nM, 500 nM, 2.5 μM, 12.5 μM, 25 μM, or 50 μM resveratrol and subject to Western Blot analysis as described above. Western blots were stripped and re-probed for phosphorylated (active) AMPK, total AMPK, phosphorylated acetyl CoA carboxylase (ACC), which is the downstream target of AMPK, and tubulin, which served as a loading control.

[4] = system: TNF-alpha treated adipocytes; assay: Radioactive glucose uptake in TNF-alpha treated, insulin resistant adipocytes; assay type: cell-based; details: resveratrol 5 μM or 15 μM; roziglitazone 4 μM (positive control); with TNF-alpha
Experimental: Adipocytes were treated with TNF-alpha to induce insulin resistance as described in Kabayama et al., Glycobiology 15:21-29 (2005) and Wu et al., Mol. Cell 3:151-8 (1999).

## C(=C/c1ccccc1)/c1ccccc1 [cis-stilbene, cis-Stilbene]
[1]; L1 animals, 48 hours, control 2.5% v/v DMSO
  fat staining: No significant effect on worm fat staining

## CSc1ccc(/C=C/c2cc(O)cc(O)c2)cc1 [3,5-dihydroxy-4′-thiomethyl-trans-stilbene]
[1]; 24 hours, control 1% v/v DMSO
  fat staining: Significant reduction of fat staining

## O=c1c(O)c(-c2ccc(O)c(O)c2)oc2cc(O)ccc12 [fisetin, 3,7,3′,4′-Tetrahydroxyflavone]
[1]; 48 hours
  fat mobilization (fat content of the worms): stimulate fat mobilization

## NC(=O)c1cccnc1 [nicotinamide, reference compound]
[2]
  fat accumulation: concentration dependent increase in fat accumulation

## O=C(/C=C/c1ccc(O)c(O)c1)c1ccc(O)cc1O [butein, 3,4,2′,4′-Tetrahydroxychalcone]
[1]; 48 hours
  fat mobilization (fat content of the worms): stimulate fat mobilization

## NC(=O)c1ncn([C@@H]2O[C@H](CO)[C@@H](O)[C@H]2O)c1N [AICAR, 5-aminoimidazole-4-carboxamide-1-beta-D-ribofuranoside, reference compound]
HepG2 cells
  14C-CO2 production (Fold Effect): 5 Fold Effect
H4IIEC3 cells
  14C-CO2 production (Fold Effect): 2.3 Fold Effect
C. elegans worms
  fat mobilization: inhibits AICAR-stimulated fat mobilization
[3]
  phosphorylation of AMPK (threonine 172) and ACC (serine 79): stimulates phosphorylation of AMPK and ACC

## Oc1cc(O)cc(/C=C/c2ccc(O)c(O)c2)c1 [piceatannol, 3,5,3′,4′-Tetrahydroxy-trans-stilbene]
[1]; 48 hours
  fat mobilization (fat content of the worms): stimulate fat mobilization

## O=c1c(O)c(-c2ccc(O)c(O)c2)oc2cc(O)cc(O)c12 [quercetin, 3,5,7,3′,4′-Pentahydroxyflavone]
[1]; 48 hours
  fat mobilization (fat content of the worms): stimulate fat mobilization

## CN(C)C(=N)N=C(N)N [Metformin]
HepG2 cells
  14C-CO2 production (Fold Effect): 3.5 Fold Effect
H4IIEC3 cells
  14C-CO2 production (Fold Effect): 2 Fold Effect

## CN(CCOc1ccc(CC2SC(=O)NC2=O)cc1)c1ccccn1 (centres unmarked) [roziglitazone, reference compound]
[4]
  radioactive glucose uptake / insulin sensitivity: increases the uptake of radioactive glucose
